The target of assay [1] is mouse TAAR1 (Mus musculus (Mouse), UniProt Q923Y8). The experiment in a line: Radioligand binding assay on mouse TAAR1. Conditions: mouse TAAR1, HEK-293 membranes; first value of mouse/rat cell. Here is the method:
(§1) Construction of TAAR Expression Plasmids and Stably Transfected Cell Lines
(§2) For the construction of expression plasmids the coding sequences of human, rat and mouse TAAR 1 were amplified from genomic DNA essentially as described by Lindemann et al.. The Expand High Fidelity PCR System (Roche Diagnostics) was used with 1.5 mM Mg^2+ and purified PCR products were cloned into pCR2.1-TOPO cloning vector (Invitrogen) following the instructions of the manufacturer. PCR products were subcloned into the pIRESneo2 vector (BD Clontech, Palo Alto, Calif.), and expression vectors were sequence verified before introduction in cell lines.
(§3) HEK293 cells (ATCC # CRL-1573) were cultured essentially as described by Lindemann et al. (2005). For the generation of stably transfected cell lines HEK293 cells were transfected with the pIRESneo2 expression plasmids containing the TAAR coding sequences (described above) with Lipofectamine 2000 (Invitrogen) according to the instructions of the manufacturer, and 24 hrs post transfection the culture medium was supplemented with 1 mg/ml G418 (Sigma, Buchs, Switzerland). After a culture period of about 10 d clones were isolated, expanded and tested for responsiveness to trace amines (all compounds purchased from Sigma) with the cAMP Biotrak Enzyme immunoassay (EIA) System (Amersham) following the non-acetylation EIA procedure provided by the manufacturer.
Radioligand Binding Assay on Mouse TAAR1
(§4) Membrane Preparation and Radioligand Binding.
(§5) HEK-293 cells stably expressing mouse TAAR1 were maintained at 37° C. and 5% CO2 in DMEM high glucose medium, containing fetal calf serum (10%, heat inactivated for 30 min at 56° C.), penicillin/streptomycin (1%), and 375 μg/ml geneticin (Gibco). Cells were released from culture flasks using trypsin/EDTA, harvested, washed twice with ice-cold PBS (without Ca^2+ and Mg^2+), pelleted at 1'000 rpm for 5 min at 4° C., frozen and stored at −80° C. Frozen pellets were suspended in 20 ml HEPES-NaOH (20 mM, pH 7.4) containing 10 mM EDTA and homogenized with a Polytron (PT 6000, Kinematica) at 14'000 rpm for 20 s. The homogenate was centrifuged at 48'000×g for 30 min at 4° C. Subsequently, the supernatant was removed and discarded, and the pellet resuspended in 20 ml HEPES-NaOH (20 mM, pH 7.4) containing 0.1 mM EDTA using the Polytron (20 s at 14'000 rpm). This procedure was repeated and the final pellet resuspended in HEPES-NaOH containing 0.1 mM EDTA and homogenized using the Polytron. Typically, aliquots of 2 ml membrane portions were stored at −80° C. With each new membrane batch the dissociation constant (Kd) was determined via a saturation curve. […] Nonspecific binding was defined as the amount of ^3[H]—(S)-4-[(ethyl-phenyl-amino)-methyl]-4,5-dihydro-oxazol-2-ylamine bound in the presence of 10 μM unlabeled ligand. All compounds were tested at a broad range of concentrations (10 pM to 10 μM) in duplicates. […] The 96 deep well plates were incubated for 1 hr at 4° C. Incubations were terminated by rapid filtration through Unifilter-96 plates (Packard Instrument Company) and glass filters GF/C (Perkin Elmer) presoaked for 1 hr in polyethylenimine (0.3%) and washed 3 times with 1 ml of cold binding buffer. After addition of 45 μl of Microscint 40 (PerkinElmer) the Unifilter-96 plate was sealed and after 1 hr the ratioactivity counted using a TopCount Microplate Scintillation Counter (Packard Instrument Company).

Assay [2] addresses rat TAAR1 (Rattus norvegicus (Rat), UniProt Q923Y9). Description: Radioligand binding assay on rat TAAR1. The following applies: rat TAAR1, HEK-293 membranes; second value of mouse/rat cell. Here is the method: as §1, §2, §3
Radioligand Binding Assay on Rat TAAR1
as §4
as §5, with “rat” for “mouse”, “[…]” for “pM”

Counter-ions that a name gives are not always drawn.

The text below walks through data of US9416127B2, “Triazole carboxamides and uses thereof” (Hoffmann-La Roche Inc., priority 2012, dated 2016).

Chain of mouse TAAR1 (Q923Y8 whole entry): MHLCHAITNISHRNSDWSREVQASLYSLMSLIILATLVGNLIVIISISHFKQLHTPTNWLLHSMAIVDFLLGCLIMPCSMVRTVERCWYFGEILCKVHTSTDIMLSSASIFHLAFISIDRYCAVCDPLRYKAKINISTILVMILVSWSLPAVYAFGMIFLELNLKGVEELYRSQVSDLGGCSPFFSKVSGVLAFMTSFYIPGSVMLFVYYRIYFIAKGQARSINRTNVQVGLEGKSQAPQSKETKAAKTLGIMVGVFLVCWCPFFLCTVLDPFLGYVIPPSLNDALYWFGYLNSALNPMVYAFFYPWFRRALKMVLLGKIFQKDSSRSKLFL
Chain of rat TAAR1 (Q923Y9 whole entry): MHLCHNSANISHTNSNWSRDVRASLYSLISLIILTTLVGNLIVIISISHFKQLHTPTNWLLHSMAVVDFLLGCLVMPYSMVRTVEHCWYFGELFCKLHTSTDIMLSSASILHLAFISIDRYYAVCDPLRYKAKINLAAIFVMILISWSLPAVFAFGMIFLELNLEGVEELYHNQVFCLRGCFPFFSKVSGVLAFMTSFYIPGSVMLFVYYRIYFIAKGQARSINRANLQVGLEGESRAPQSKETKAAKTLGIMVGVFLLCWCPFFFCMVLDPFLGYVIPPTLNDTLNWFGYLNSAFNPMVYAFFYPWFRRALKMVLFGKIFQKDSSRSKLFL

By Ki is commonly meant the dissociation constant of the complex between target and ligand, obtained from inhibition or displacement. On to `O=C(Nc1ccc(C2CCNC2)cc1)c1cn(-c2ccc(OC(F)F)cc2)nn1` (racemic) [Example 33, (RS)-1-(4-(Difluoromethoxy)phenyl)-N-(4-(pyrrolidin-3-yl)phenyl)-1H-1,2,3-triazole-4-carboxamide], for which the Ki in assay [1] is 0.0049 µM; in assay [2] it was 0.0189 µM. For `O=C(Nc1ccc(C2CCNC2)cc1)c1cnn(-c2ccccc2)n1` (racemic) [Example 34, (RS)-2-Phenyl-N-(4-(pyrrolidin-3-yl)phenyl)-2H-1,2,3-triazole-4-carboxamide] the same measures were 0.0032 µM and 0.001 µM. Take `O=C(Nc1ccc(C2CCCNC2)cc1)c1cnn(-c2ccccc2)n1` (racemic) [Example 35, (RS)-2-Phenyl-N-(4-(piperidin-3-yl)phenyl)-2H-1,2,3-triazole-4-carboxamide]: in assay [2], the affinity, expressed as Ki, was 0.0017 µM. For the molecule `O=C(Nc1ccc([C@H]2CNCCO2)cc1)c1cnn(-c2ccccc2)n1` [Example 1, (S)—N-(4-(Morpholin-2-yl)phenyl)-2-phenyl-2H-1,2,3-triazole-4-carboxamide hydrochloride], the figures for the Ki in assay [1] and in assay [2] were 0.0012 µM and 0.0013 µM, respectively.

Regarding `Cc1nn(-c2ccccc2)nc1C(=O)Nc1ccc([C@H]2CNCCO2)cc1` [Example 2, (S)-5-Methyl-N-(4-(morpholin-2-yl)phenyl)-2-phenyl-2H-1,2,3-triazole-4-carboxamide hydrochloride], the Ki in assay [1] is 0.0015 µM; in assay [2], 0.0008 µM. As to `O=C(Nc1ccc([C@H]2CNCCO2)cc1)c1cnn(-c2ccc(Cl)cc2)n1` [Example 6, (S)-2-(4-Chlorophenyl)-N-(4-(morpholin-2-yl)phenyl)-2H-1,2,3-triazole-4-carboxamide hydrochloride], the Ki in assay [1] was determined as 0.0004 µM; in assay [2], 0.0002 µM. On the same counts, the results for `Cc1nn(-c2ccccc2)nc1C(=O)Nc1ccc([C@@H]2CNCCO2)cc1` [Example 7, (R)-5-Methyl-N-(4-(morpholin-2-yl)phenyl)-2-phenyl-2H-1,2,3-triazole-4-carboxamide hydrochloride] are 0.0027 µM and 0.0002 µM. For `O=C(Nc1ccc([C@@H]2CNCCO2)cc1)c1cnn(-c2ccccc2)n1` [Example 8, (R)—N-(4-(Morpholin-2-yl)phenyl)-2-phenyl-2H-1,2,3-triazole-4-carboxamide hydrochloride] the same measures were 0.0014 µM and 0.0008 µM. As to `O=C(Nc1ccc([C@H]2CNCCO2)cc1)c1cnn(-c2ccc(F)cc2)n1` [Example 9, (S)-2-(4-Fluorophenyl)-N-(4-(morpholin-2-yl)phenyl)-2H-1,2,3-triazole-4-carboxamide hydrochloride], the inhibitory constant (Ki) in assay [1] was found to be 0.0004 µM; in assay [2], 0.0006 µM. Consider `O=C(Nc1ccc([C@H]2CNCCO2)cc1)c1cnn(-c2ccc(C(F)(F)F)cc2)n1` [Example 10, (S)—N-(4-(Morpholin-2-yl)phenyl)-2-(4-(trifluoromethyl)phenyl)-2H-1,2,3-triazole-4-carboxamide hydrochloride], for which the inhibition constant Ki in assay [1] was 0.0004 µM; in assay [2] it was 0.0002 µM. For the molecule `O=C(Nc1ccc([C@H]2CNCCO2)cc1)c1cnn(-c2cccc(F)c2)n1` [Example 11, (S)-2-(3-Fluorophenyl)-N-(4-(morpholin-2-yl)phenyl)-2H-1,2,3-triazole-4-carboxamide hydrochloride], the inhibitory constant (Ki) in assay [1] turned out to be 0.0003 µM; in assay [2] it was 0.0004 µM. Consider `O=C(Nc1ccc([C@H]2CNCCO2)cc1)c1cnn(-c2cccc(Cl)c2)n1` [Example 12, (S)-2-(3-Chlorophenyl)-N-(4-(morpholin-2-yl)phenyl)-2H-1,2,3-triazole-4-carboxamide hydrochloride], for which the Ki in assay [1] and in assay [2] was 0.0002 µM each time. Turning to `O=C(Nc1ccc([C@H]2CNCCO2)cc1)c1cnn(-c2cccc(C(F)(F)F)c2)n1` [Example 13, (S)—N-(4-(Morpholin-2-yl)phenyl)-2-(3-(trifluoromethyl)phenyl)-2H-1,2,3-triazole-4-carboxamide hydrochloride], the Ki in assay [1] is 0.0003 µM; in assay [2], 0.0006 µM. For `O=C(Nc1ccc([C@H]2CNCCO2)cc1)c1cnn(-c2ccc(OC(F)(F)F)cc2)n1` [Example 15, (S)—N-(4-(Morpholin-2-yl)phenyl)-2-(4-(trifluoromethoxy)phenyl)-2H-1,2,3-triazole-4-carboxamide hydrochloride] the same measures were 0.0002 µM and 0.0001 µM. On the same counts, the results for `O=C(Nc1ccc([C@H]2CNCCO2)cc1)c1cnn(-c2ccc(OC(F)F)cc2)n1` [Example 16, (S)-2-(4-(Difluoromethoxy)phenyl)-N-(4-(morpholin-2-yl)phenyl)-2H-1,2,3-triazole-4-carboxamide hydrochloride] are 0.0003 µM and 0.0002 µM. On the same counts, the results for `Cc1ccc(-n2cc(C(=O)Nc3ccc([C@H]4CNCCO4)cc3)nn2)cc1` [Example 17, (S)—N-(4-(Morpholin-2-yl)phenyl)-1-p-tolyl-1H-1,2,3-triazole-4-carboxamide hydrochloride] are 0.0013 µM and 0.0174 µM.

On to `Cc1ccc(-n2ncc(C(=O)Nc3ccc([C@H]4CNCCO4)cc3)n2)cc1` [Example 18, (S)—N-(4-(Morpholin-2-yl)phenyl)-2-p-tolyl-2H-1,2,3-triazole-4-carboxamide hydrochloride], for which the values for the Ki in assay [1] and in assay [2] were 0.0007 µM and 0.0016 µM, respectively.

For the molecule `COc1ccc(-n2cc(C(=O)Nc3ccc([C@H]4CNCCO4)cc3)nn2)cc1` [Example 19, (S)-1-(4-Methoxyphenyl)-N-(4-(morpholin-2-yl)phenyl)-1H-1,2,3-triazole-4-carboxamide hydrochloride], the results for the Ki in assay [1] and in assay [2] were 0.0016 µM and 0.0388 µM, respectively. On the same counts, the results for `COc1ccc(-n2ncc(C(=O)Nc3ccc([C@H]4CNCCO4)cc3)n2)cc1` [Example 20, (S)-2-(4-Methoxyphenyl)-N-(4-(morpholin-2-yl)phenyl)-2H-1,2,3-triazole-4-carboxamide hydrochloride] are 0.0014 µM and 0.0019 µM. For `CCOc1ccc(-n2cc(C(=O)Nc3ccc([C@H]4CNCCO4)cc3)nn2)cc1` [Example 21, (S)-1-(4-Ethoxyphenyl)-N-(4-(morpholin-2-yl)phenyl)-1H-1,2,3-triazole-4-carboxamide hydrochloride] the same measures were 0.0018 µM and 0.0293 µM.
